Assay results as given in patent publication US20110311533A1 (priority 2010, published 2011).

Biological target: PrP (Mus musculus, UniProt P04925)
Format: cell-based

Chain of PrP (P04925 23-230 limits assumed): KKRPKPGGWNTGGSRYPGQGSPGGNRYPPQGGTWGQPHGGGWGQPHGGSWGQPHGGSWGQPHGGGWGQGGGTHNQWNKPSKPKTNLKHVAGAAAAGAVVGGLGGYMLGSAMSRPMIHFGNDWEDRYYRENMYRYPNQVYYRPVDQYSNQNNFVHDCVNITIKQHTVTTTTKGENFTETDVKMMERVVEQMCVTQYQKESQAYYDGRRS

Substance: Tunicamycin
- PrP glycoform pattern: accumulate the non-glycosilated specie of PrP
